The subject of one assay is TNFα. Put plainly: cells. It counts as cell-based, human. Particulars: Homo sapiens, Monocyte, LPS-stimulated human monocytes, TNFα by TR-FRET; read-out: EC50 TNF.
The target of another assay is IRAK4 enzyme (Homo sapiens (Human), UniProt Q9NWZ3). Put plainly: biochemical. The note with it: IRAK4 enzyme, TR-FRET, 500 μM ATP. It counts as biochemical. (In general: TR-FRET usually uses a lanthanide donor and a delayed reading to cut background.)

In patent US10336762B2 (priority 2017, dated 2019) one finds EC50 and IC50 data, which are given here for 24 molecules.

Sequence of IRAK4 enzyme (Q9NWZ3 whole entry): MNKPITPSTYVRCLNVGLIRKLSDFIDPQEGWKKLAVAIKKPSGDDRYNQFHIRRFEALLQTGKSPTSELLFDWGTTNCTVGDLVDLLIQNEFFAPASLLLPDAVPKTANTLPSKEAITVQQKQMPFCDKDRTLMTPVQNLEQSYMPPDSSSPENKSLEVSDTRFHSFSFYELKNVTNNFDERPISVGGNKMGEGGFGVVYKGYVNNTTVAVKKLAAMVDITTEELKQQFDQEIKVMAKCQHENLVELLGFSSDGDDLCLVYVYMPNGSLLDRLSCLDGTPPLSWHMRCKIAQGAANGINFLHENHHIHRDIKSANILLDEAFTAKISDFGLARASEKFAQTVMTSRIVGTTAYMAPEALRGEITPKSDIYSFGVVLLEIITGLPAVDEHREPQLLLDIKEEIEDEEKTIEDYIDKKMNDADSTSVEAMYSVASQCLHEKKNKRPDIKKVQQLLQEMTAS

By EC50 is commonly meant the concentration at which the effect is half-maximal. By IC50 is commonly meant the concentration needed to halve the response being measured. The low end stands for greater potency in that assay, the high end for weaker potency in that assay. Regarding `COC(=O)NC[C@H]1C[C@H](Nc2cc(-c3ccc4cc(C#N)cnn34)ncc2C(=O)NC2CCC(NC(=O)C3CC3)CC2)C1` (stereo partly drawn) [Example 830, methyl (((1R,3r)-3-((2-(3-cyanopyrrolo[1,2-b]pyridazin-7-yl)-5-(((1r,4R)-4-(cyclopropanecarboxamido)cyclohexyl)carbamoyl)pyridin-4-yl)amino)cyclobutyl)methyl)carbamate], in the assay with TNFα, the EC50 came to 23 nM. The molecule also gave an IC50 on IRAK4 enzyme of less than 1 nM.

As for `CC(C)(O)[C@H](F)CNC(=O)c1cnc(-c2ccc3cc(C#N)cnn23)cc1N[C@H]1C[C@H](CNS(C)(=O)=O)C1` [Example 831, 6-(3-cyanopyrrolo[1,2-b]pyridazin-7-yl)-N-((R)-2-fluoro-3-hydroxy-3-methylbutyl)-4-(((1r,3R)-3-(methylsulfonamido-methyl)cyclobutyl)amino)nicotinamide], in the assay on TNFα, the half-maximal effective concentration (EC50) was 49 nM. At IRAK4 enzyme, the IC50 was less than 1 nM.

In the case of `CC(C)(O)[C@H](F)CNC(=O)c1cnc(-c2ccc3cc(C#N)cnn23)cc1NC1CCC2(CCC(=O)N2)CC1` (stereo partly drawn) [Example 832, 6-(3-cyanopyrrolo[1,2-b]pyridazin-7-yl)-N-((R)-2-fluoro-3-hydroxy-3-methylbutyl)-4-(((5R,8r)-2-oxo-1-azaspiro[4.5]decan-8-yl)amino) nicotinamide], the EC50 with TNFα amounted to 132 nM. The molecule also gave an IC50 on IRAK4 enzyme of 1 nM.

Turning to `CC(C)(O)[C@H](F)CNC(=O)c1cnc(-c2ccc3cc(C#N)cnn23)cc1NC12CC(CNC(=O)C3CC3(F)F)(C1)C2` (stereo partly drawn) [Example 833, 6-(3-cyanopyrrolo[1,2-b]pyridazin-7-yl)-4-((3-(((R)-2,2-difluorocyclo-propane-1-carboxamido)methyl)bicyclo[1.1.1]pentan-1-yl)amino)-N-((R)-2-fluoro-3-hydroxy-3-methylbutyl)nicotinamide], in the assay with TNFα, the concentration for a half-maximal effect (EC50) was 192 nM. In addition, the IC50 at IRAK4 enzyme was found to be 1 nM.

As to `COC(=O)NCc1ccc(Nc2cc(-c3ccc4cc(C#N)cnn34)ncc2C(=O)NC[C@@H](F)C(C)(C)O)cc1F` [Example 834, (R)-methyl (4-((2-(3-cyano-pyrrolo[1,2-b]pyridazin-7-yl)-5-((2-fluoro-3-hydroxy-3-methylbutyl)carbamoyl)pyridin-4-yl)amino)-2-fluorobenzyl)carbamate], in the assay with TNFα, the EC50 was 23 nM. The molecule further returned an IC50 against IRAK4 enzyme of less than 1 nM.

Turning to `CCOc1cncc(Nc2cc(-c3ccc4cc(C#N)cnn34)ncc2C(=O)NC[C@@H](F)C(C)(C)O)c1` [Example 835, (R)-6-(3-cyanopyrrolo[1,2-b]pyridazin-7-yl)-4-((5-ethoxypyridin-3-yl)amino)-N-(2-fluoro-3-hydroxy-3-methylbutyl)nicotinamide], the EC50 in the assay on TNFα is 8 nM. Also, on IRAK4 enzyme, the IC50 was less than 1 nM.

Regarding `CCOc1cccc(Nc2cc(-c3ccc4cc(C#N)cnn34)ncc2C(=O)NC[C@@H](F)C(C)(C)O)c1` [Example 836, (R)-6-(3-cyanopyrrolo[1,2-b]pyridazin-7-yl)-4-((3-ethoxyphenyl)amino)-N-(2-fluoro-3-hydroxy-3-methylbutyl)nicotinamide], the 50% effective concentration (EC50) in the assay with TNFα came to 43 nM. At IRAK4 enzyme, this molecule showed an IC50 of 2 nM.

With `CC(C)Oc1cccc(Nc2cc(-c3ccc4cc(C#N)cnn34)ncc2C(=O)NC[C@@H](F)C(C)(C)O)c1` [Example 837, (R)-6-(3-cyanopyrrolo[1,2-b]pyridazin-7-yl)-N-(2-fluoro-3-hydroxy-3-methylbutyl)-4-((3-isopropoxyphenyl)amino)nicotinamide], the EC50 in the assay on TNFα was determined as 117 nM. The molecule also displayed an IC50 on IRAK4 enzyme of 3 nM.

On to `CC(C)Cc1cccc(Nc2cc(-c3ccc4cc(C#N)cnn34)ncc2C(=O)NC[C@@H](F)C(C)(C)O)c1` [Example 838, (R)-6-(3-cyanopyrrolo[1,2-b]pyridazin-7-yl)-N-(2-fluoro-3-hydroxy-3-methylbutyl)-4-((3-isobutylphenyl)amino) nicotinamide], for which the concentration giving a half-maximal response (EC50) with TNFα was more than 10000 nM. Half-maximal inhibition on IRAK4 enzyme (IC50) was put at 57 nM.

With `CCC(=O)c1cccc(Nc2cc(-c3ccc4cc(C#N)cnn34)ncc2C(=O)NC[C@@H](F)C(C)(C)O)c1` [Example 839, (R)-6-(3-cyanopyrrolo[1,2-b]pyridazin-7-yl)-N-(2-fluoro-3-hydroxy-3-methylbutyl)-4-((3-propionylphenyl)amino) nicotinamide], the EC50 in the assay on TNFα amounted to 307 nM. The molecule further displayed an IC50 on IRAK4 enzyme of 1 nM.

Consider `COc1cnc(Nc2cc(-c3ccc4cc(C#N)cnn34)ncc2C(=O)NC[C@@H](F)C(C)(C)O)cn1` [Example 840, (R)-6-(3-cyanopyrrolo[1,2-b]pyridazin-7-yl)-N-(2-fluoro-3-hydroxy-3-methylbutyl)-4-((5-methoxypyrazin-2-yl)amino)nicotinamide], for which, in the assay with TNFα, the 50% effective concentration (EC50) came out at 17 nM. In addition, the IC50 against IRAK4 enzyme was less than 1 nM.

Turning to `CCOc1cnc(Nc2cc(-c3ccc4cc(C#N)cnn34)ncc2C(=O)NC[C@@H](F)C(C)(C)O)cn1` [Example 841, (R)-6-(3-cyanopyrrolo[1,2-b]pyridazin-7-yl)-4-((5-ethoxypyrazin-2-yl)amino)-N-(2-fluoro-3-hydroxy-3-methylbutyl)nicotinamide], the EC50 in the assay on TNFα was 29 nM. Besides, the IC50 against IRAK4 enzyme is less than 1 nM.

On to `COc1cncc(Nc2cc(-c3ccc4cc(C#N)cnn34)ncc2C(=O)NC[C@@H](F)C(C)(C)O)n1` [Example 842, (R)-6-(3-cyanopyrrolo[1,2-b]pyridazin-7-yl)-N-(2-fluoro-3-hydroxy-3-methylbutyl)-4-((6-methoxypyrazin-2-yl)amino)nicotinamide], for which the EC50 with TNFα is 42 nM. The IC50 on IRAK4 enzyme was less than 1 nM.

In the case of `CCCc1nccc(Nc2cc(-c3ccc4cc(C#N)cnn34)ncc2C(=O)NC[C@@H](F)C(C)(C)O)n1` [Example 843, (R)-6-(3-cyanopyrrolo[1,2-b]pyridazin-7-yl)-N-(2-fluoro-3-hydroxy-3-methylbutyl)-4-((2-propyl-pyrimidin-4-yl)amino)nicotinamide], the EC50 with TNFα worked out at 137 nM. The IC50 against IRAK4 enzyme was determined as 1 nM.

Take `COc1nccc(Nc2cc(-c3ccc4cc(C#N)cnn34)ncc2C(=O)NC[C@@H](F)C(C)(C)O)n1` [Example 844, (R)-6-(3-cyanopyrrolo[1,2-b]pyridazin-7-yl)-N-(2-fluoro-3-hydroxy-3-methylbutyl)-4-((2-methoxypyrimidin-4-yl)amino)nicotinamide]: the 50% effective concentration (EC50) in the assay with TNFα was 70 nM. Moreover, on IRAK4 enzyme, the IC50 came out at 1 nM.

On to `CCOc1cncc(Nc2cc(-c3ccc4cc(C#N)cnn34)ncc2C(=O)NC[C@@H](F)C(C)(C)O)n1` [Example 845, (R)-6-(3-cyanopyrrolo[1,2-b]pyridazin-7-yl)-4-((6-ethoxypyrazin-2-yl)amino)-N-(2-fluoro-3-hydroxy-3-methylbutyl)nicotinamide], for which the EC50 in the assay on TNFα is more than 10000 nM. This molecule also registered an IC50 at IRAK4 enzyme of less than 1 nM.

Consider `COc1cc(Nc2cc(-c3ccc4cc(C#N)cnn34)ncc2C(=O)NC[C@@H](F)C(C)(C)O)ncn1` [Example 846, (R)-6-(3-cyanopyrrolo[1,2-b]pyridazin-7-yl)-N-(2-fluoro-3-hydroxy-3-methylbutyl)-4-((6-methoxy-pyrimidin-4-yl)amino) nicotinamide], for which the 50% effective concentration (EC50) in the assay with TNFα came out at 97 nM. At IRAK4 enzyme, this molecule had an IC50 of 2 nM.

On to `CCOc1cc(Nc2cc(-c3ccc4cc(C#N)cnn34)ncc2C(=O)NC[C@@H](F)C(C)(C)O)ccn1` [Example 847, (R)-6-(3-cyanopyrrolo[1,2-b]pyridazin-7-yl)-4-((2-ethoxypyridin-4-yl)amino)-N-(2-fluoro-3-hydroxy-3-methylbutyl)nicotinamide], for which, in the assay with TNFα, the EC50 was 69 nM. This molecule displayed an IC50 at IRAK4 enzyme of less than 1 nM.

`CCOc1nccc(Nc2cc(-c3ccc4cc(C#N)cnn34)ncc2C(=O)NC[C@@H](F)C(C)(C)O)n1` [Example 848, (R)-6-(3-cyanopyrrolo[1,2-b]pyridazin-7-yl)-4-((2-ethoxypyrimidin-4-yl)amino)-N-(2-fluoro-3-hydroxy-3-methylbutyl) nicotinamide]: the EC50 with TNFα was 112 nM. The molecule further came in with an IC50 against IRAK4 enzyme of 2 nM.

Consider `CCCOc1cncc(Nc2cc(-c3ccc4cc(C#N)cnn34)ncc2C(=O)NC[C@@H](F)C(C)(C)O)c1` [Example 849, (R)-6-(3-cyanopyrrolo[1,2-b]pyridazin-7-yl)-N-(2-fluoro-3-hydroxy-3-methylbutyl)-4-((5-propoxy-pyridin-3-yl)amino) nicotinamide], for which the EC50 in the assay with TNFα stood at 11 nM. Besides, on IRAK4 enzyme, the IC50 is less than 1 nM.

Consider `CC(C)(O)[C@H](F)CNC(=O)c1cnc(-c2ccc3cc(C#N)cnn23)cc1Nc1cnc2c(c1)OCCO2` [Example 850, (R)-6-(3-cyanopyrrolo[1,2-b]pyridazin-7-yl)-4-((2,3-dihydro-[1,4]dioxino[2,3-b]pyridin-7-yl)amino)-N-(2-fluoro-3-hydroxy-3-methylbutyl)nicotinamide], for which the EC50 with TNFα was determined as 10 nM. The molecule further yielded an IC50 against IRAK4 enzyme of less than 1 nM.

Regarding `CC(C)Oc1cncc(Nc2cc(-c3ccc4cc(C#N)cnn34)ncc2C(=O)NC[C@@H](F)C(C)(C)O)c1` [Example 851, (R)-6-(3-cyanopyrrolo[1,2-b]pyridazin-7-yl)-N-(2-fluoro-3-hydroxy-3-methylbutyl)-4-((5-isopropoxypyridin-3-yl)amino)nicotinamide], the EC50 with TNFα is 12 nM. At IRAK4 enzyme, this molecule yielded an IC50 of less than 1 nM.

`COc1cc(Nc2cc(-c3ccc4cc(C#N)cnn34)ncc2C(=O)NC[C@@H](F)C(C)(C)O)cnc1OC` [Example 853, (R)-6-(3-cyanopyrrolo[1,2-b]pyridazin-7-yl)-4-((5,6-dimethoxypyridin-3-yl)amino)-N-(2-fluoro-3-hydroxy-3-methylbutyl) nicotinamide]: the EC50 in the assay with TNFα turned out to be 127 nM. For the same molecule, the IC50 at IRAK4 enzyme is 14 nM.

As to `CN1CCOc2cc(Nc3cc(-c4ccc5cc(C#N)cnn45)ncc3C(=O)NC[C@@H](F)C(C)(C)O)ccc21` [Example 854, (R)-6-(3-cyanopyrrolo[1,2-b]pyridazin-7-yl)-N-(2-fluoro-3-hydroxy-3-methylbutyl)-4-((4-methyl-3,4-dihydro-2H-benzo[b] [1,4]oxazin-7-yl)amino)nicotinamide], the EC50 with TNFα was determined as 10 nM. Besides, the IC50 on IRAK4 enzyme came out at 1 nM.
